Test results published in article PMC3860322 (Leukemia & lymphoma, 2013).

Columns and labels:
[1] = Plasma pharmacokinetics of 17-AAG and its metabolite 17-AG; format: in vivo, patients; settings: for AUC exposed: combined AUC of 17-AAG and 17-AG
acute myeloid leukemia = settings: phase I trial in AML, after one cycle of therapy; cited from earlier work
cytochrome P450 3A4 = settings: cited from earlier work
[2] = 17-AAG in plasma, day 1 (17-AAG alone), 150 mg/m^2, n=8
[3] = 17-AAG in plasma, day 1 (17-AAG alone), 200 mg/m^2, n=3
[4] = 17-AAG in plasma, day 4 (17-AAG+PS-341), 150 mg/m^2, n=8
[5] = 17-AAG in plasma, day 4 (17-AAG+PS-341), 200 mg/m^2, n=3
[6] = 17-AAG, day 1 (17-AAG alone), 150 mg/m^2, n=8
[7] = 17-AAG, day 1 (17-AAG alone), 200 mg/m^2, n=3
[8] = 17-AAG, day 4 (17-AAG+PS-341), 150 mg/m^2, n=8
[9] = 17-AAG, day 4 (17-AAG+PS-341), 200 mg/m^2, n=3
[10] = metabolite 17-AG, day 1 (17-AAG alone), 17-AAG 150 mg/m^2, n=8
[11] = metabolite 17-AG, day 1 (17-AAG alone), 17-AAG 200 mg/m^2, n=3
[12] = metabolite 17-AG, day 4 (17-AAG+PS-341), 17-AAG 150 mg/m^2, n=8
[13] = metabolite 17-AG, day 4 (17-AAG+PS-341), 17-AAG 200 mg/m^2, n=3

For `C=CCNC1=C2C[C@@H](C)C[C@H](OC)[C@H](O)[C@@H](C)/C=C(\C)[C@H](OC(N)=O)[C@@H](OC)/C=C\C=C(/C)C(=O)NC(=CC1=O)C2=O` [17-AAG, 17-Allylamino-17-demethoxygeldanamycin, reference compound], the Cmax ([1]; 17-AAG in plasma, cycle 1 day 1 (17-AAG alone), 17-AAG 200 mg/m^2 IV, n=3) was 3814 ± 578 ng/mL, the AUCtot [1, 2] was 5871 ± 2508 ng·h/mL and the “Terminal T1/2” value [1, 2] was 4.77 ± 1.15 h. For the same molecule, the AUCtot [1, 3] was 9002 ± 1970 ng·h/mL, the “Terminal T1/2” value [1, 3] was 4.59 ± 0.21 h and the AUCtot [1, 4] was 6717 ± 2631 ng·h/mL. For the same molecule, the “Terminal T1/2” value [1, 4] was 4.04 ± 0.86 h, the AUCtot [1, 5] was 9142 ± 1358 ng·h/mL and the “Terminal T1/2” value [1, 5] was 3.78 ± 1.29 h. For the same molecule, the Clearance [1, 6] was 29.36 ± 11.11 L/h, the Vss [1, 6] was 98.10 ± 37.46 L and the Clearance [1, 7] was 22.92 ± 4.89 L/h. The Vss [1, 7] was 73.30 ± 16.81 L, the Clearance [1, 8] was 24.94 ± 8.10 L/h and the Vss [1, 8] was 82.36 ± 19.91 L. For the same molecule, the Clearance [1, 9] was 21.92 ± 3.91 L/h and the Vss [1, 9] was 86.83 ± 24.37 L.
Work on `CO[C@H]1/C=C\C=C(/C)C(=O)NC2=CC(=O)C(N)=C(C[C@@H](C)C[C@H](OC)[C@H](O)[C@@H](C)/C=C(\C)[C@@H]1OC(N)=O)C2=O` [17-AG, 17-amino-17-demethoxygeldanamycin] yielded an AUC exposed ([1]; day 1 (17-AAG alone), 17-AAG 150 mg/m^2, n=8) of 12205 ± 8530 ng·h/mL, an AUC exposed ([1]; day 1 (17-AAG alone), 17-AAG 200 mg/m^2, n=3) of 18959 ± 3169 ng·h/mL and an AUC exposed ([1]; day 4 (17-AAG+PS-341), 17-AAG 150 mg/m^2, n=8) of 14468 ± 7179 ng·h/mL. For the same molecule, the AUC exposed ([1]; day 4 (17-AAG+PS-341), 17-AAG 200 mg/m^2, n=3) was 22403 ± 1036 ng·h/mL, the “change in 17-AG clearance on co-administration with bortezomib” value ([1]; day 4 (17-AAG+bortezomib) vs day 1 (17-AAG alone), all 11 patients, p=0.005) was “decrease in clearance” and the “change in 17-AG AUC on co-administration with bortezomib” value ([1]; day 4 (17-AAG+bortezomib) vs day 1 (17-AAG alone), all 11 patients, p=.032) was “increase in AUC”. The Cmax ([1]; metabolite 17-AG in plasma, day 1 (17-AAG alone), 17-AAG 150 mg/m^2, n=8) was 821 ± 450 ng/mL, the Cmax ([1]; metabolite 17-AG in plasma, day 1 (17-AAG alone), 17-AAG 200 mg/m^2, n=3) was 1300 ± 421 ng/mL and the Cmax ([1]; metabolite 17-AG in plasma, day 4 (17-AAG+PS-341), 17-AAG 150 mg/m^2, n=8) was 1025 ± 445 ng/mL. For the same molecule, the Cmax ([1]; metabolite 17-AG in plasma, day 4 (17-AAG+PS-341), 17-AAG 200 mg/m^2, n=3) was 1412 ± 26 ng/mL, the Clearance ([1]; metabolite 17-AG, apparent clearance, day 1 (17-AAG alone), 17-AAG 150 mg/m^2, n=8) was 41.35 ± 26.48 L/h and the Clearance ([1]; metabolite 17-AG, apparent clearance, day 1 (17-AAG alone), 17-AAG 200 mg/m^2, n=3) was 23.07 ± 12.01 L/h. The Clearance ([1]; metabolite 17-AG, apparent clearance, day 4 (17-AAG+PS-341), 17-AAG 150 mg/m^2, n=8) was 29.87 ± 23.29 L/h, the Clearance ([1]; metabolite 17-AG, apparent clearance, day 4 (17-AAG+PS-341), 17-AAG 200 mg/m^2, n=3) was 14.86 ± 1.55 L/h and the AUCtot [1, 10] was 6334 ± 6244 ng·h/mL. For the same molecule, the “Terminal T1/2” value [1, 10] was 11.16 ± 1.40 h, the Tmax [1, 10] was 1.53 ± 0.42 h and the AUCtot [1, 11] was 9957 ± 4258 ng·h/mL. For the same molecule, the “Terminal T1/2” value [1, 11] was 7.92 ± 1.76 h, the Tmax [1, 11] was 1.53 ± 0.46 h and the AUCtot [1, 12] was 7751 ± 5028 ng·h/mL. The “Terminal T1/2” value [1, 12] was 10.53 ± 2.20 h, the Tmax [1, 12] was 1.85 ± 1.10 h and the AUCtot [1, 13] was 13261 ± 1216 ng·h/mL. For the same molecule, the “Terminal T1/2” value [1, 13] was 7.47 ± 0.73 h and the Tmax [1, 13] was 3.72 ± 0.64 h.
For `CO[C@H]1/C=C\C=C(/C)C(=O)NC2=CC(=O)C(NCCN(C)C)=C(C[C@@H](C)C[C@H](OC)[C@H](O)[C@@H](C)/C=C(\C)[C@@H]1OC(N)=O)C2=O` [alvespimycin], the clinical response (acute myeloid leukemia) is listed as “three patients achieved a complete remission with incomplete count recovery”.
In the case of `CC(C)C[C@H](NC(=O)[C@H](Cc1ccccc1)NC(=O)c1cnccn1)B(O)O` [bortezomib], the metabolizing enzyme (cytochrome P450 3A4) is given as “metabolized by cytochrome P450 3A4”.
